Earlier results on 2 molecules are cited in publication PMC11340619 (Redox Biology, 2024).

The data set concerns hepatic I/R injury. To be noted: in mice; NRF2 agonist treatment; ref [14],[15].

`C[S+]([O-])CCCCN=C=S` (centres unmarked) [sulforaphane]: the “hepatic I/R injury” value is recorded as “alleviate hepatic I/R injury in mice”. With `C=C(CC(=O)O)C(=O)O` [itaconate], the “hepatic I/R injury” value is “alleviate hepatic I/R injury in mice”.
